Laboratory results: patent publication US20230021365A1, “COMPOSITION COMPRISING P53-ACTIVATING PEPTIDE” (SUPADELIXIR INC., priority 2019, published 2023)

tested on: interaction between p53 and POLII; assay: in situ PLA (proximity ligation assay) of physical binding between p53 and RNA Polymerase II (POLII) in HaCaT cells; format: cell-based, human; details: summary statement in the description
Procedure: After treating cells with the peptides of the present invention, the effects thereof on the physical binding between p53 and RNA Polymerase II (POLII) were evaluated through an in situ PLA (proximity ligation assay) method. HaCaT cells (human keratinocytes, CLS) were added at 4.5×10^4 cells per well, along with a DMEM containing 10% fetal bovine serum, to each well of a 24-well microplate and then cultured at 37° C. in a 5% CO2 incubator for 24 hours. The peptide solutions of Example 2 were added thereto so that the concentration of each peptide in the medium was 20 μM, followed by incubating for 1 hour under the same condition. […] The cells of each well were washed with PBS, fixed by treating with 2% formaldehyde for 15 minutes, and then treated with 0.1% TritonX-100 for 5 minutes to increase antibody permeability into the cells. Anti-p53 polyclonal antibody (Abcam, UK) and anti-POLII polyclonal antibody (Santa Cruz, Calif., USA) were added thereto. After the PLA probe was added thereto using the in situ PLA kit (Sigma-Aldrich), hybridization, ligation, amplification and mounting steps were carried out according to the manufacturer's protocol. Each physical interaction between p53 and POLII was quantified by measuring the luminescence signals (PLA signals) detected in each cell with a confocal laser microscope (Olympus fluoview FW1000; Olympus, Tokyo, Japan).

Row | Substance | activity in decreasing the interaction between p53 and MDM2 and thus increasing the interaction between p53 and POLII
1 | Leu-Ala-Asp (LAD) [Pep 4] | particularly excellent activity
2 | Leu-Arg-Asp (LRD) [Pep 6] | particularly excellent activity
3 | Leu-Gly-Asp (LGD) [Pep 3] | particularly excellent activity
4 | Leu-Lys-Asp (LKD) [Pep 7] | particularly excellent activity
5 | Leu-Ser-Asp (LSD) [Pep 2] | particularly excellent activity
6 | Leu-Thr-Asp (LTD) [Pep 18] | particularly excellent activity
7 | Leu-Tyr-Asp (LYD) [Pep 9] | particularly excellent activity
